Data on three compounds can be found in patent US8344001B2, “Heterocyclic H3 antagonists” (High Point Pharmaceuticals, LLC, priority 2007, dated 2013).

pIC50, pKi: −log10 of the molar value.

One series has as its target Human H3 (Homo sapiens, UniProt Q9Y5N1). Kind of series: Functional assay II, human H3 GTPγS. Conditions: read-out: hH3-GTPgS) [Ki]. The format is biochemical.
Another series has as its system rat. Description: Open cage schedule-fed rat model, food intake. The format is in vivo. Conditions: for Feed. Inhib. rat [Response 3 h]: response at 3 h.
The target of another series is hERG (Homo sapiens, UniProt Q12809). Kind of series: Herg-binding (3H-Astemizol). Conditions: probe 3H-astemizole.
hERG, sequence (Q12809 whole entry): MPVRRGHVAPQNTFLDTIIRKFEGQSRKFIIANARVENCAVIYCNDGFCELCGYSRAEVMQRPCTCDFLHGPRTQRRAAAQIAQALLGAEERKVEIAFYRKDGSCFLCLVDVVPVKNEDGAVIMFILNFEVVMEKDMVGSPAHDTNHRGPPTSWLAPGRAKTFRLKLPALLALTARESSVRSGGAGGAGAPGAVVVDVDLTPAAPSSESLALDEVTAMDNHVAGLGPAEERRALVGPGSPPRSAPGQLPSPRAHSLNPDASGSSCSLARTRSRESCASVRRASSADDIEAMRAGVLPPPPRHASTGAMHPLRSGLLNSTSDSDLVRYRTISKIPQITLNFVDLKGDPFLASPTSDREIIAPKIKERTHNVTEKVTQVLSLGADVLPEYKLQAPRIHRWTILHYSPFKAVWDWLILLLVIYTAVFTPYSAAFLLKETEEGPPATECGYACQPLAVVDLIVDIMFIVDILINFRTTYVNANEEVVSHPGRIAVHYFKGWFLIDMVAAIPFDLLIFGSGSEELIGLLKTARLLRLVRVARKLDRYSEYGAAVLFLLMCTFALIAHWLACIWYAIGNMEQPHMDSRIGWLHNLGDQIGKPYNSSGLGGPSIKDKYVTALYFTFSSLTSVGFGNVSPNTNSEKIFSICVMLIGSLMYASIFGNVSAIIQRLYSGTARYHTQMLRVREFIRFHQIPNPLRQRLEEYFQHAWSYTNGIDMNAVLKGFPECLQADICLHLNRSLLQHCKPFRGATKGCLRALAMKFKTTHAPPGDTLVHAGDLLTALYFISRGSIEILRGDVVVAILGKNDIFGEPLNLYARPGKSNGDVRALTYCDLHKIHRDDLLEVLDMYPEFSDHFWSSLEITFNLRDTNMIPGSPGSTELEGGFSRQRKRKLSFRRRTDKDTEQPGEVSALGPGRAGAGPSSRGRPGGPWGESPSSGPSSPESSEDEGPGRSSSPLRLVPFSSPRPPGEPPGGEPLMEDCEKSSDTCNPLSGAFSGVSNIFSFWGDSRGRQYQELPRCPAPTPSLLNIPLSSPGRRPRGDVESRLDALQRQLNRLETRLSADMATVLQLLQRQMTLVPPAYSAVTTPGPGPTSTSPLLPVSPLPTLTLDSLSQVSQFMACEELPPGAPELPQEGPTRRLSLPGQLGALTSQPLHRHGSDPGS
A further series has as its target CYP2C19 (Homo sapiens, UniProt P33261). Kind of series: CYP2C19 inhibition. The format is in vitro ADME. Conditions: read-out: CYP2C19inh [IC50].
In a further series the target is CYP2C9 (Homo sapiens, UniProt P11712). Description: CYP2C9 inhibition. The format is in vitro ADME. Conditions: read-out: CYP2C9inh [IC50].
CYP2C9, sequence (P11712 whole entry): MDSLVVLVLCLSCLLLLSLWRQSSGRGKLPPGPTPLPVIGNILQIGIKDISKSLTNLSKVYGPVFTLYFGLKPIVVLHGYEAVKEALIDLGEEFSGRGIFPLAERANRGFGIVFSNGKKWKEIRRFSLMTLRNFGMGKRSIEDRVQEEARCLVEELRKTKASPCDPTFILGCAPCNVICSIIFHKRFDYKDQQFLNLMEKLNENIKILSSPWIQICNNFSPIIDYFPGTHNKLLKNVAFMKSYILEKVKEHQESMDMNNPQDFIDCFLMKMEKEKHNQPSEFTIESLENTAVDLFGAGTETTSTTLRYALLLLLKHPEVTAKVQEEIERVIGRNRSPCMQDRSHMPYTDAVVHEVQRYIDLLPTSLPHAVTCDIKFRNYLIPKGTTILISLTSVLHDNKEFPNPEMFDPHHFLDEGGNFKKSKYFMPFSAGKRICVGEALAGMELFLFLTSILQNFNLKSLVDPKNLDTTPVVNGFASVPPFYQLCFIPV
The next series concerns the target CYP2D6 (Homo sapiens, UniProt P10635). Kind of series: CYP2D6 inhibition. The format is in vitro ADME. Conditions: read-out: CYP2D6inh [IC50].
Another series has as its target CYP3A4 (Homo sapiens, UniProt P08684). Description: CYP3A4 inhibition. The format is in vitro ADME. Conditions: read-out: CYP3A4inh [IC50].
Another series deals with T1, CYP1A (Homo sapiens, UniProt P05177).
T1 sequence (P05177 2-516): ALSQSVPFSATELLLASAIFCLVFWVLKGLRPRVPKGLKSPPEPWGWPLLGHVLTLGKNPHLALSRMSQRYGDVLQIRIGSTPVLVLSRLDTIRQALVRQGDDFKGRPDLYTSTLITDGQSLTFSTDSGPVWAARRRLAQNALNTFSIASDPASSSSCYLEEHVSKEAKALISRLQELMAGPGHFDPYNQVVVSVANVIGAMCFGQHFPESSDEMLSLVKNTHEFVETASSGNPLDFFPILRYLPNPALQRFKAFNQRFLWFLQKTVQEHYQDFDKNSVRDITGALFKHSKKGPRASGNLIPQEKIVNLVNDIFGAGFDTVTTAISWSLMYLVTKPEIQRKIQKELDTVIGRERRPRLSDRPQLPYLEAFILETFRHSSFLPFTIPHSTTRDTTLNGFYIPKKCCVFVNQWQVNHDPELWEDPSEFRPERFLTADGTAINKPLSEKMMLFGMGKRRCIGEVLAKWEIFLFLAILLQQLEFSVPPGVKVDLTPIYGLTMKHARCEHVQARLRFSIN
Description: CYP1A inhibition.

CYP2C19, sequence (P33261 whole entry): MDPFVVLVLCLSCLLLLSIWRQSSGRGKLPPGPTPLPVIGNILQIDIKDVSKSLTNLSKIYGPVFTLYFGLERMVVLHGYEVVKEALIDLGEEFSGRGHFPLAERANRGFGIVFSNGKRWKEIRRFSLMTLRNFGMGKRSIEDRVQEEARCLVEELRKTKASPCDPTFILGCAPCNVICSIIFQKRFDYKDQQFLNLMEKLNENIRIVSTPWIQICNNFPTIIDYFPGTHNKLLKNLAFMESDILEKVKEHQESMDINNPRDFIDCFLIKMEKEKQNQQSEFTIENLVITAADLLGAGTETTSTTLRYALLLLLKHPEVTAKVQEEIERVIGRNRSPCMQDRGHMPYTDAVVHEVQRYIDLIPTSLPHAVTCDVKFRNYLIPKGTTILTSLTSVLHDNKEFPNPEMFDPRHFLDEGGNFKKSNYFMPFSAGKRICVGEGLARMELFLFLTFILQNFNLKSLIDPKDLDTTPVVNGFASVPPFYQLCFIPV
CYP3A4, sequence (P08684 whole entry): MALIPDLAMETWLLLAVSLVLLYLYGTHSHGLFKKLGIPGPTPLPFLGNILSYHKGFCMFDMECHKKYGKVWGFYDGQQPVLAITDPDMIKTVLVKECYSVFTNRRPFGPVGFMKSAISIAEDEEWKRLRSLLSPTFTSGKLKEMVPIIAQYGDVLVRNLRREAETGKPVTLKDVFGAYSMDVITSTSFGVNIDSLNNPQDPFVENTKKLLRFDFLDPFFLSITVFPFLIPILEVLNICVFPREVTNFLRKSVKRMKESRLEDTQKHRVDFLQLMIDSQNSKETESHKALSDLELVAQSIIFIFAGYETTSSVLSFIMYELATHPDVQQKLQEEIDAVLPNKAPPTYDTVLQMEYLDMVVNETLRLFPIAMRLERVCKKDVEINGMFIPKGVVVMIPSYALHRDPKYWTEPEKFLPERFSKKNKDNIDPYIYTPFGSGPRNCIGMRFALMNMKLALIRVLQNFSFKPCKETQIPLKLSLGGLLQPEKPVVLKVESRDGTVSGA
Human H3, sequence (Q9Y5N1 whole entry): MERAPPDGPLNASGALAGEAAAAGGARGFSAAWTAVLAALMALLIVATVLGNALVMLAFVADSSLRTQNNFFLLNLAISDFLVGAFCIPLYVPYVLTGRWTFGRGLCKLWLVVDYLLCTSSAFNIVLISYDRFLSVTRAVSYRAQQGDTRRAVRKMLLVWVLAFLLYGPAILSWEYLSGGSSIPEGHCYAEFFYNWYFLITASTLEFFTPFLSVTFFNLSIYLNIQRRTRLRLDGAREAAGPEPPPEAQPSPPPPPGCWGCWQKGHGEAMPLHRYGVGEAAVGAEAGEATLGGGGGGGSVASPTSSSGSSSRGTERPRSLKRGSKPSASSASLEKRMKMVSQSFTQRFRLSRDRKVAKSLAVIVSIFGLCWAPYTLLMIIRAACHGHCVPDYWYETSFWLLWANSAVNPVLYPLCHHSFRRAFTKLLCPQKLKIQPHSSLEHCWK
CYP2D6, sequence (P10635 whole entry): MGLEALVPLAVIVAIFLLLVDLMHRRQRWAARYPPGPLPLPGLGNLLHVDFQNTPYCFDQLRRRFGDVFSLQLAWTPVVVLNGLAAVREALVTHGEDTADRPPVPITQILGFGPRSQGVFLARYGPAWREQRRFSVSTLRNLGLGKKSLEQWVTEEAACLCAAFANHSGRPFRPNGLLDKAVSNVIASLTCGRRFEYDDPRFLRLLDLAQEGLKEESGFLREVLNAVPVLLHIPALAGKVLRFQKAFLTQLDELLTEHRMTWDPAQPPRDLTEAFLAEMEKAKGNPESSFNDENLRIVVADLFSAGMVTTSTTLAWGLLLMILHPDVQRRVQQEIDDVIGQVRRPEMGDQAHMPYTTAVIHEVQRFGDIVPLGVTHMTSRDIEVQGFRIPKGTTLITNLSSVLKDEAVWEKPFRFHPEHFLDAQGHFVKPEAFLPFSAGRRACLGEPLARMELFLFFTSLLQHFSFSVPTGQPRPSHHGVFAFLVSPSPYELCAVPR

`CC(C)N1CCC(c2ccc(-c3ccc(C(=O)N4CCCC4)cc3)cn2)CC1.Cl.Cl` [Example 11, [4-(1′-Isopropyl-1′,2′,3′,4′,5′,6′-hexahydro-[2,4′]bipyridinyl-5-yl)phenyl]pyrrolidin-1-ylmethanone]: on Human H3, the negative logarithm of the Ki (pKi) was 7.59. Further, in the series with rat, the “Open cage schedule-fed rat model, dose 15 mg/kg p.o., food intake at 3 h” value was 85.9 % of vehicle. Besides, the “Feed. Inhib. rat [Response 3 h]” value in the series with rat came to 85.9%. On hERG, this compound showed an inhibition at 10 µM of 19%. The pIC50 at CYP2C19, at CYP2C9, on CYP2D6, at CYP3A4 and at CYP1A was under 4.60 throughout.

With `Cc1cc(-c2ccc(CC3CCN(C4CCC4)CC3)nc2)ccn1.Cl.Cl` [Example 29, 6-(1-Cyclobutylpiperidin-4-ylmethyl)-2′-methyl-[3,4′]bipyridinyl], the pKi on Human H3 was 8.08. The “Open cage schedule-fed rat model, dose 15 mg/kg p.o., food intake at 3 h” value in the series on rat was 74.4 % of vehicle. In addition, the “Feed. Inhib. rat [Response 3 h]” value with rat was 74.4%. In addition, testing at 10 µM on hERG gave an inhibition of 7%. In addition, the pIC50 on CYP2C19, on CYP2C9, on CYP2D6, on CYP3A4 and against CYP1A was under 4.60 throughout.

For `CC(C)N1CCN(Cc2ccc(-c3ccc(C(=O)N(C)C)cc3)cn2)CC1.Cl.Cl` [Example 42, 4-[6-(4-Isopropylpiperazin-1-ylmethyl)pyridin-3-yl]-N,N-dimethylbenzamide], on Human H3, the pKi was 7.77. Also, the “Open cage schedule-fed rat model, dose 15 mg/kg p.o., food intake at 3 h” value in the series on rat was 87.8 % of vehicle. Besides, the “Feed. Inhib. rat [Response 3 h]” value in the series on rat is given as 87.8%. For the same compound, testing at 10 µM on hERG gave an inhibition of 7%. Also, the negative-log IC50 (pIC50) on CYP2C19, on CYP2C9, at CYP2D6, at CYP3A4 and on CYP1A was under 4.60 in each case.

One may read the pKi as the Ki on a negative log10 scale, so that one unit is a factor of ten. The term inhibition denotes how much of the control response was suppressed. The pIC50 is the negative decadic logarithm of the IC50, by convention in mol/L.
